Four compounds from US10183030B2, “17α,21-diesters of cortexolone for use in the treatment of tumors” (COSMO TECHNOLOGIES LTD., priority 2014, dated 2019) can be followed below.

One data set concerns HT29 colon cancer cells. Nature of the data set: In vitro proliferation, HT29 (cancer cell panel). The format is cell-based. Particulars: Homo sapiens, HT-29, HT29. As for the experimental part: (§1) Each compounds was titrated from 3 uM to 200 uM.
A further data set deals with MCF7 breast cancer cells. In words: In vitro proliferation / cytotoxic assay, MCF7. Format: cell-based. To be noted: Homo sapiens.
In data set [1] the test system is Caspase 8, 9 and 3/7 in MiaPaca2 cells. Nature of the data set: Caspase activity in MiaPaca2 cells. The format is cell-based, human. To be noted: 8, 24, 48 hours. On the procedure:
From previous studies was determined that CB-03-10 induces apoptosis using Annexin V staining in MiaPaca2 cells. To better analyze the phenomenon the enzymatic activity of Caspase 8 (initiator caspase for Extrinsic Pathway) and Caspase 9 (initiator caspase for Intrinsic Pathway) and of Caspases 3 and 7 (effector caspases) were measured.
After 24 hours test compounds were added to cells, Gemcitabine (a known pancreatic cancer chemotherapeutic agent) and DMSO were used as positive and negative control, respectively. After 8, 24, & 48 hours incubation with test compounds, cells were lysed in buffer containing the caspase 3/7 or 8 or 9 substrate and a stable luciferase in proprietary buffers. The lysates were transferred to white opaque plates before measuring luminescence in a Tecan Safire instrument. Parallel plates treated identically, were used to determine viable cells. All caspase activities were corrected for the number of viable cells.

Data set [2] is described as follows: In vivo pharmacokinetics in mouse plasma. Particulars: mouse, in vivo, 40 mg/kg. As for the experimental part: The pharmacokinetic of CB-03-10 was evaluated in plasma of mice after intravenous (IV), subcutaneous (SC) and oral administration (PO).
Mice (3 per group) were administered with the following doses, blood was collected at the indicated times. Plasma samples were analyzed by HPLC-MS/MS.

The test system of data set [3] is LNCaP (AR+) prostate cancer cells. In words: ATP-dependent proliferation/viability assay, LNCaP. The format is cell-based. To be noted: Homo sapiens. On the procedure:
(§2) The experiment was performed to test and to define the antitumor activity in vitro of cortexolone 17α-benzoate on LNCaP (AR^+) and PC3 (AR^−), representative of Prostatic cancer cell lines with Androgen Receptor (AR) positive or negative expression, respectively. The experimental method consisted of: • 1. […] After 24 hours, 10 nM DHT (dihydrotestosterone) with or without anti-androgen compounds, or DMSO vehicle (negative control) was added to the cultures. • 3.
(§3) The experiment was performed to test and to define antitumor activity in vitro of cortexolone 17α-valerate-21-propionate (CB-03-10) on LNCaP (AR^+) and PC3 (AR^−), representative of Prostatic cancer cell lines with AR positive or negative expression, respectively. The experimental method consisted of: • 1. […] After 24 hours, 10 nM DHT (dihydrotestosterone) with or without anti-androgen compounds, or DMSO vehicle (negative control) was added to the cultures. • 3.
as §1

The test system of data set [4] is resting PBMC (quiescent, non-dividing cells). In words: IC50 on resting PBMC (intrinsic toxicity). Particulars: Homo sapiens, PBMC RESTING, Table III, read-out: in vitro proliferation IC50 (μ/M). The format is cell-based.
Experimental: (§6) The IC50 in PBMC were tested in 2 different activation status: • stimulated—actively dividing cells • resting—quiescent, non-dividing cells
(§7) IC50 of the compounds was determined on fresh cells isolated from human blood (PBMC).
The test system of data set [5] is stimulated PBMC (actively dividing cells). Nature of the data set: IC50 on stimulated PBMC (intrinsic toxicity). The format is cell-based. Particulars: Homo sapiens, PBMC STIMULATED
Experimental: as §6, §7
For data set [6], the system named is MiaPaca2 (AR low) pancreatic cancer cells. Nature of the data set: ATP-dependent proliferation/viability assay, MiaPaca2. Format: cell-based. Particulars: Homo sapiens. As for the experimental part: (§4) The experimental method consisted of: • 1. […] After 24 hours, 10 nM DHT (dihydrotestosterone) with or without anti-androgen compounds, or DMSO vehicle (negative control) was added to the cultures. • 3.
as §1

Data set [7] deals with Panc1 (AR+) pancreatic cancer cells. In words: ATP-dependent proliferation/viability assay, Panc1. Format: cell-based. To be noted: Homo sapiens. As for the experimental part:
as §4, §1

The subject of data set [8] is PC3 (AR−) prostate cancer cells. Nature of the data set: ATP-dependent proliferation/viability assay, PC3. Format: cell-based. To be noted: Homo sapiens, 72 h, Tables I and II, unit inferred, titrated from 3 uM to 200 uM, 3 days. As for the experimental part: as §2, §3, §1
Data set [9] has the same test system. Nature of the data set: ATP-dependent proliferation/viability assay, PC3. Particulars: Homo sapiens. The format is cell-based.
The next data set relates to LNCaP cells. Nature of the data set: LNCaP cell viability in the PSA secretion experiment. The format is cell-based. Particulars: Homo sapiens, 48 hours, same cells as PSA assay. On the procedure:
(§5) Prostate-specific antigen, or PSA, is a protein produced by cells of the prostate gland. The PSA test measures the level of PSA in a person's blood. The blood level of PSA is often elevated in men with prostate cancer and it used as surrogate marker to test prostate cancer progression in human population. […] After 48 hours incubation with test compounds, supernatants were harvested and tested with an Elisa assay for PSA and same cells were lysed for cell viability assessment.

For data set [10], the system named is PSA secretion from LNCaP prostate cancer cells. Nature of the data set: PSA secretion from LNCaP cells (Elisa). Particulars: Homo sapiens, 48 hours, read-out: IC50, inhibition of PSA secretion. The format is cell-based. On the procedure: as §5, with “population. After the observation that CB-03-10 was able to inhibit in vivo the growth of prostate cancer, the capability of the compound to inhibit in vitro PSA secretion from cancer cells was determined.” for “population.”

Another data set deals with MDA-MB-231 TNBC cells. Nature of the data set: In vitro proliferation / cytotoxic assay, MDA-MB-231. The format is cell-based.
Where [11] appears, read: Table IV, read-out: In vitro proliferation IC50 (micro Molar).
[12] abbreviates: Table III, read-out: in vitro proliferation IC50 (μ/M).

The structures appear in SMILES notation. Where two headings read alike, the source gives them in different places. Bounds are passed on as bounds.

Experimental for MCF7 breast cancer cells: (§8) After 72 hours incubation cell were harvested, lysed and viability determined using the cell titer glow assay for viability.
Experimental for MDA-MB-231 TNBC cells: as §8

Regarding `CCCCC(=O)O[C@]1(C(=O)CO)CC[C@H]2[C@@H]3CCC4=CC(=O)CC[C@]4(C)[C@H]3CC[C@@]21C` [CB-03-05, cortexolone 17α-valerate], the IC50 was 30 µM in the data set with HT29 colon cancer cells (Table III, read-out: in vitro proliferation IC50 (μ/M) (converted)); 30 µM in the data set on HT29 colon cancer cells (setting [11]); 50 µM with MCF7 breast cancer cells (MCF7 (ER+PR+GR+/−), 72 hours, Table VI, unit inferred, read-out: IC50 on breast cancer cells); 50 µM with MCF7 breast cancer cells (MCF7, Table III, read-out: in vitro proliferation IC50 (μ/M)); 50 µM with MCF7 breast cancer cells (MCF7, Table IV, read-out: In vitro proliferation IC50 (micro Molar)); 32 µM in data set [3] (72 h, Tables I and II, unit inferred, compounds titrated from 3 uM to 200 uM, 3 days, read-out: IC50). Besides, the IC50 in data set [3] (setting [12]) was 32 µM; in data set [3] (setting [11]), 32 µM; in data set [3] (general conclusion text, read-out: IC50 in LNCaP prostate cancer cells) it was 32 µM; in data set [4], 120 µM; in data set [5] (setting [12]) it was 130 µM; in [5] (setting [11]) it was 130 µM. Moreover, the IC50 in [6] (MIA PaCa-2, 72 h, MiaPaca2, Tables I and II, unit inferred, titrated from 3 uM to 200 uM, 3 days, read-out: IC50) worked out at 59 µM; in data set [6] (MIA PaCa-2, MiaPaca2, Table III, read-out: in vitro proliferation IC50 (μ/M)), 59 µM; in [6] (MIA PaCa-2, MiaPaca2, Table IV, read-out: In vitro proliferation IC50 (micro Molar)) it was 59 µM; in data set [7] (PANC-1, 72 h, Panc1, Tables I and II, unit inferred, titrated from 3 uM to 200 uM, 3 days, read-out: IC50), 74 µM; in [7] (PANC-1, Panc1, Table III, read-out: in vitro proliferation IC50 (μ/M)), 74 µM; in data set [7] (PANC-1, Panc1, Table IV, read-out: In vitro proliferation IC50 (micro Molar)), 74 µM. The IC50 in data set [8], in [9] (setting [12]) and in data set [9] (setting [11]) was 170 µM each time. Besides, the “Caspase 3/7 induction” value in [1] is “does not show a good profile for caspase activation”. Also, the “body exposure (metabolite after CB-03-10 dosing)” value in data set [2] (po) came to 47 h/ng/mL; in data set [2] (sc), 189 h/ng/mL.

With `C[C@]12CCC(=O)C=C1CC[C@@H]1[C@@H]2CC[C@@]2(C)[C@H]1CC[C@]2(O)C(=O)CO` [Cortexolone], the values for the IC50 (with LNCaP cells; in data set [10]) were 153 µM and 612 µM, respectively.

Consider `CNC(=O)c1ccc(N2C(=S)N(c3ccc(C#N)c(C(F)(F)F)c3)C(=O)C2(C)C)cc1F` [Enzalutamide], for which, in data set [10], the IC50 was under 3 µM.

Take `CC#C[C@]1(O)CC[C@H]2[C@@H]3CCC4=CC(=O)CCC4=C3[C@@H](c3ccc(N(C)C)cc3)C[C@@]21C` [RU486, Mifepristone]: in the data set on MDA-MB-231 TNBC cells (Homo sapiens, MDA-MB-231 (ER−PR−GR++), 72 hours, Table VI, unit inferred, read-out: IC50 on breast cancer cells), the IC50 was determined as 435 µM. Also, the “maximum inhibition of viability” value in the data set with MDA-MB-231 TNBC cells (MDA-MB-231, at 100 μM) is recorded as 25%.
